Data taken from PubChem BioAssay (NCI).
Values joined by “and” are separate entries in the source; they are usually repeats but may differ in a detail not shown here. Identical values can stand only once.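 These data come from cells grown in 96-well plates and exposed to compound for 48 hours at five concentrations. The concentration for 50% growth inhibition is given as GI50. The concentration for full growth arrest is given as TGI.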

Assays:
Experiment in all cases: NCI tumour cell line growth inhibition, 48 h
786-0 renal = test system: 786-0 renal
HCC-2998 colon = test system: HCC-2998 colon
IGROV1 ovarian = test system: IGROV1 ovarian
MALME-3M melanoma = test system: MALME-3M melanoma
NCI-H23 lung = test system: NCI-H23 lung
NCI/ADR-RES ovarian = test system: NCI/ADR-RES ovarian
OVCAR-5 ovarian = test system: OVCAR-5 ovarian
SF-268 CNS = test system: SF-268 CNS
T-47D breast = test system: T-47D breast
U251 CNS = test system: U251 CNS

Compound | GI50 (786-0 renal) [µM] | TGI (786-0 renal) [µM] | GI50 (HCC-2998 colon) [µM] | TGI (HCC-2998 colon) [µM] | GI50 (IGROV1 ovarian) [µM] | TGI (IGROV1 ovarian) [µM] | GI50 (MALME-3M melanoma) [µM] | TGI (MALME-3M melanoma) [µM] | GI50 (NCI-H23 lung) [µM] | TGI (NCI-H23 lung) | GI50 (NCI/ADR-RES ovarian) | TGI (NCI/ADR-RES ovarian) [µM] | GI50 (OVCAR-5 ovarian) [µM] | TGI (OVCAR-5 ovarian) [µM] | GI50 (SF-268 CNS) [µM] | TGI (SF-268 CNS) [µM] | GI50 (T-47D breast) [µM] | TGI (T-47D breast) [µM] | GI50 (U251 CNS) [µM] | TGI (U251 CNS) [µM]
C[C@@H]1C/C=C\C(=O)O[C@H](/C=C/C#C/C=C/C(C)(C)[C@@H](O)c2cccc(O)c2Br)[C@@H](C)/C=C/[C@H](C)C[C@H](OC(N)=O)C1 | 0.0361 | 15.2 | 0.054 | 11.8 | 0.0344 | 18.5 | 0.0419 | 4.6 | 0.319 | 21.6 µM | 0.0567 µM | 16.4 | 0.0322 | 18.3 | 0.0402 | 18.2 | 0.0354 | 22.9 | 0.0706 | 18.3
O=C(Cc1ccc(/C=C/C(=O)c2ncc[nH]2)cc1)Nc1ccc(C(F)(F)F)cc1 | 1.4 | 6.07 | 3.97 | 8.61 | 3.84 | 15.9 | 5.18 | 12.9 | 3.42 | 9.26 µM | 8.96 µM | > 33.3 | 4.89 | 10.2 | 3.05 | 9.53 | 3.97 | 12.3 | 1.22 | 4.11
O=C(O)Cn1ccnc1[N+](=O)[O-] | – | > 100 | – | > 100 | – | > 100 | – | > 100 | – | > 100 µM | – | > 100 | – | > 100 | – | > 100 | – | > 100 | – | > 100
COc1ccc2[nH]c(-c3ccccc3)cc2c1 | > 100 | > 100 | > 100 | > 100 | > 100 | > 100 | > 100 | > 100 | 97.9 | > 100 µM | > 100 µM | > 100 | > 100 | > 100 | > 100 | > 100 | 19.3 | > 100 | > 100 | > 100
CCCCCCCCCCCCCCCCS(=O)(=O)c1ccc(NN)cc1 | – | > 10 | – | > 10 | – | > 10 | – | > 10 | – | > 10 µM | – | > 10 | – | > 10 | – | > 10 | – | > 10 | – | > 10
C=CC(=O)Nc1cccc(Nc2nc(Nc3ccc(OCCOC(F)F)cc3)ncc2F)c1 | 1.32 | 12.1 | 12.6 | 47.6 | 1.88 | 9.61 | 2.49 | 35.1 | 6.99 | > 100 µM | 2.48 µM | 19.7 | 4.12 | > 100 | 2.25 | 17.6 | 1.83 | 9.98 | 2.39 | 18.9
COc1cc2cc(Oc3ccc(NC(=O)c4cccc5c4OCCO5)cc3)c(C)nc2cc1OC | 4.7 | > 100 | 5.5 | > 100 | 64.5 | > 100 | 8.76 | > 100 | 8.14 | > 100 µM | 3.42 µM | > 100 | 10.8 | > 100 | 14.4 | > 100 | 2.82 | 15.4 | 5.03 | > 100
Cc1cc(=O)oc2cc(OCCn3c(C)nn(-c4ccc(Cl)cc4)c3=O)ccc12 | 5.7 | > 100 | 3.59 | > 100 | 35 | > 100 | 3.85 | > 100 | 2.83 | > 100 µM | 1.64 µM | > 100 | 21.9 | > 100 | 13.6 | > 100 | 7.55 | > 100 | 4.18 | 72.3
Fc1cc(-c2nnc3n2N=C(c2ccc(Cl)cc2Cl)CS3)c(Cl)cc1Cl | 47.1 | > 100 | 35 | > 100 | 50.4 | > 100 | 26.6 | 94.4 | 82.5 | > 100 µM | 30.8 µM | 99.5 | > 100 | > 100 | 36.6 | > 100 | 11.7 | 48.5 | 38.2 | > 100
COc1cc2nnn3c4ncccc4c(N=O)c3c2cc1OC | 0.391 | 2.48 | 2.28 | 10.8 | 0.896 | > 37 | 3.04 | 17.2 | 6.4 | 27.9 µM | 0.91 µM | > 33.6 | 5.83 | > 64.6 | 0.564 | 19.3 | 0.317 | > 29.9 | 0.777 | > 39.9
CC(C)(CO)N=Cc1ccccc1[O-].CC(C)(CO)N=Cc1ccccc1[O-].[Co+2] | 42.1 | > 100 | 75.4 | > 100 | 84.3 | > 100 | 49.5 | > 100 | 72.7 | > 100 µM | > 100 µM | > 100 | > 79.7 | > 100 | 46.3 | > 100 | 10.1 | > 100 | 74.9 | > 100
Nc1ccn([C@@H]2C(F)=C(CO)[C@@H](O)[C@H]2O)c(=O)n1 | 0.726 | > 100 | 0.962 | > 100 | 2.88 | > 100 | 9.57 | > 100 | 3.84 | > 100 µM | 0.578 µM | > 100 | 12.2 | > 100 | 1.53 | > 100 | 5.02 | > 100 | 2.78 | > 100
O=C(O)C1C(C(=O)O)C2(Cl)C(Cl)=C(Cl)C1(Cl)C2(Cl)Cl.[Cd] (configuration not stated) | 8.59 | 22 | 22.6 | 47.7 | 17.7 | 34.2 | 2.33 | 7.05 | 2.62 | 9.17 µM | 28.6 µM | 80.3 | 18.2 | 32.9 | 18.1 | 36.8 | 11.4 | 28.1 | 11.2 | 24.9
NC(=O)c1cc(I)ccc1NC(=O)COc1ccccc1 | 0.957 | 18.8 | 2.5 | > 100 | 2.34 | > 100 | 7.28 | > 100 | 0.822 | 22.4 µM | 0.329 µM | 5.43 | 2.24 | > 100 | 1.14 | 26.1 | 0.556 | > 100 | 0.365 | 10.8
CCc1cccc(CC)c1/C=C/c1cncc(C(=O)NC)c1 | 14.2 | > 25 | 11.2 | > 25 | > 21.7 | > 25 | 10.9 | > 25 | 15.2 | > 25 µM | 6.71 µM | > 25 | > 17.6 | > 25 | 15.6 | > 25 | 11.9 | > 25 | 10.6 | > 25
COc1ccc(C2ONC3=NCCN32)cc1 (configuration not stated) | 25.5 | > 100 | 49.7 | > 100 | 73.2 | > 100 | > 100 | > 100 | > 100 | > 100 µM | 40.4 µM | > 100 | > 100 | > 100 | 70.5 | > 100 | 99.4 | > 100 | 45 | > 100
COc1cc(O)c(C(C)=O)c(O)c1 | – | > 100 | – | > 100 | – | > 100 | – | > 100 | – | > 100 µM | – | > 100 | – | > 100 | – | > 100 | – | > 100 | – | > 100
Nc1ncnc2c1c(-c1ccc(Oc3ccccc3)cc1)nn2C[C@@H]1SSC[C@@H]1O | 2.75 | 11.1 | 0.479 | 14.8 | 0.839 | 3.26 | 0.445 | 2.24 | 0.333 | 7.93 µM | 1.05 µM | 7.8 | 2.16 | 26.2 | 0.0375 | 0.53 | 0.305 | 2.27 | 0.853 | 8.71
CC[C@@]1(O)C(=O)OCc2c1cc1n(c2=O)Cc2cc3c(N)cccc3nc2-1 | 0.0048 | 0.0457 | 0.0239 | 1.39 | – | 6.26 | – | 1.88 | 0.00525 | 0.0511 µM and 0.162 µM | 0.0158 µM and < 0.0151 µM | 2.08 | 0.0763 | 1.1 | 0.00728 | 3.06 | 0.00662 | – | 0.00889 | 1.55
c1ccc(CC(NCCNC(Cc2ccccc2)c2ccccc2)c2ccccc2)cc1 (configuration not stated) | 0.383 | 1.59 | 0.393 | 1.55 | 0.605 | 2.84 | 0.339 | 1.44 | 0.589 | 2.55 µM | 0.643 µM | 2.2 | 1.24 | 3.57 | 0.801 | 7.12 | 0.243 | 0.693 | 0.406 | 1.43
